Here are results for 16 molecules from patent publication US20250302815A1, “PROTEIN TYROSINE PHOSPHATASE TARGETING LIGANDS” (CALICO LIFE SCIENCES LLC, priority 2021, published 2025).

Molecules are shown by their SMILES.

Test [1] deals with T1, PTPN2 (B16F10.4 cells) (Mus musculus, UniProt Q06180).
T1 construct: HiBiT; host or cells: B16F10.4
T1 sequence (Q06180 1-406): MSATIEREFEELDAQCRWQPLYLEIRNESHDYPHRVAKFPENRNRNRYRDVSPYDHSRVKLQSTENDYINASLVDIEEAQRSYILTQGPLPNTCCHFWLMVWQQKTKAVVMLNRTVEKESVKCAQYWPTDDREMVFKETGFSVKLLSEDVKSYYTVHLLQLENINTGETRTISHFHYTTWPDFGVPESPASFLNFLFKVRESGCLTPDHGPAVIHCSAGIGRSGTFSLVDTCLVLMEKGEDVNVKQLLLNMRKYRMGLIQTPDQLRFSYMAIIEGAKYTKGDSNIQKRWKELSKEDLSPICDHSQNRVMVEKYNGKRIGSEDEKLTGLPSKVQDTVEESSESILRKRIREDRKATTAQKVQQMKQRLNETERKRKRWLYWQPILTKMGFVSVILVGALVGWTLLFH
Put plainly: HiBiT Degradation B16F10.4 PTPN2. It is filed as cell-based. As to conditions: 24.0 hours. (In general: The HiBiT peptide binds its large partner to form an active luciferase.)

Test [2] deals with T2, PTPN2 (HiBIT-PTPN2 in 293T.109 cells) (Homo sapiens, UniProt P17706).
T2 construct: expressed in transfected cells; host or cells: 293T.109 (293T WT from ATCC)
T2 sequence (P17706 1-415): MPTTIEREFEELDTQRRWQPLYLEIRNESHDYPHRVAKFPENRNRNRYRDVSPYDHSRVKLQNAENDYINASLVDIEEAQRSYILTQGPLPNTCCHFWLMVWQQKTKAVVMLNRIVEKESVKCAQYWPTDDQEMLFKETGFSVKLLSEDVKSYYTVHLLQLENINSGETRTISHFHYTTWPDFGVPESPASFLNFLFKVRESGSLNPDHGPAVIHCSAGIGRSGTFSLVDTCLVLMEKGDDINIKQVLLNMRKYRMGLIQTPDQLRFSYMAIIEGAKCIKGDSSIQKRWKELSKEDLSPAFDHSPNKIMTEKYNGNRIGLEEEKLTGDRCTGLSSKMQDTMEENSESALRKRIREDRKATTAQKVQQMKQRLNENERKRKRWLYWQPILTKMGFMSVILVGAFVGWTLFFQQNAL
Put plainly: HiBiT Degradation 293T.109 PTPN2 (Nano-Glo HiBiT Lytic Assay). It is filed as cell-based. As to conditions: 24.0 hours. In outline:
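293T.109 cells with ectopic N-terminal HiBiT-tagged PTPN2 (5000/well) exposed to compounds for 24 h at 37 °C, 5% CO2; 11-point half-log titration from 10 μM top, duplicates. Remaining HiBiT-PTPN2 read as luminescence with Nano-Glo HiBiT lytic reagent, normalised to untreated cells (0%) and reagent-free wells.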

On to `Cn1c(=O)n(C2CCC(=O)NC2=O)c2ccc(N3CCN(C(=O)Nc4cccc(CS(=O)(=O)N5CC[C@H](Nc6cccc(-c7sc(C(=O)O)c(OCC(=O)O)c7Cl)c6)CC5(C)C)c4)CC3)cc21` (stereo partly drawn) [Example 80, 3-(Carboxymethoxy)-4-chloro-5-[3-[[(4S)-1-[[3-[[4-[1-(2,6-dioxo-3-piperidyl)-3-methyl-2-oxo-benzimidazol-5-yl]piperazine-1-carbonyl]amino]phenyl]methylsulfonyl]-2,2-dimethyl-4-piperidyl]amino]phenyl]thiophene-2-carboxylic acid], for which the DC50 in test [1] and in test [2] was 50 to 200 nM throughout.
For `CC1(C)C[C@@H](Nc2cccc(-c3sc(C(=O)O)c(OCC(=O)O)c3Cl)c2)CCN1S(=O)(=O)Cc1cccc(N2CCN(CCCc3ccc4c5c(cccc35)C(=O)N4C3CCC(=O)NC3=O)C2=O)c1` (some centres unmarked) [Example 202], the DC50 in test [1] lay in the range of 50 to 200 nM; in test [2], 200 to 1000 nM.
For `Cn1c(=O)n(C2CCC(=O)NC2=O)c2ccc([C@H]3CC[C@@H](C(=O)Nc4cccc(CS(=O)(=O)N5CC[C@H](Nc6cccc(-c7sc(C(=O)O)c(OCC(=O)O)c7Cl)c6)CC5(C)C)c4)CC3)cc21` (stereo partly drawn) [Example 139, 3-(carboxymethoxy)-4-chloro-5-(3-(((4S)-1-((3-((1s,4R)-4-(1-(2,6-dioxopiperidin-3-yl)-3-methyl-2-oxo-2,3-dihydro-1H-benzo[d]imidazol-5-yl)cyclohexane-1-carboxamido)benzyl)sulfonyl)-2,2-dimethylpiperidin-4-yl)amino)phenyl)thiophene-2-carboxylic acid], the DC50 in test [1] was 50 to 200 nM; in test [2], less than 50 nM.
For `Cn1c(=O)n(C2CCC(=O)NC2=O)c2ccc(-c3cccc(CC(=O)Nc4cccc(CS(=O)(=O)N5CC[C@H](Nc6cccc(-c7sc(C(=O)O)c(OCC(=O)O)c7Cl)c6)CC5(C)C)c4)c3)cc21` (stereo partly drawn) [Example 192, 3-(carboxymethoxy)-4-chloro-5-(3-(((4S)-1-((3-(2-(3-(1-(2,6-dioxopiperidin-3-yl)-3-methyl-2-oxo-2,3-dihydro-1H-benzo[d]imidazol-5-yl)phenyl)acetamido)benzyl)sulfonyl)-2,2-dimethylpiperidin-4-yl)amino)phenyl)thiophene-2-carboxylic acid], in that order: 50 to 200 nM and 50 to 200 nM.
For `O=C(O)COc1c(C(=O)O)sc(-c2cccc(NC3CCN(S(=O)(=O)Cc4cccc(NC(=O)CCCCNC(=O)CNc5cccc6c5CN(C5CCC(=O)NC5=O)C6=O)c4)CC3)c2)c1Cl` (centres unmarked) [Example 22, 3-(carboxymethoxy)-4-chloro-5-(3-((1-((3-(5-(2-((2-(2,6-dioxopiperidin-3-yl)-1-oxoisoindolin-4-yl)amino)acetamido)pentanamido)benzyl)sulfonyl)piperidin-4-yl)amino)phenyl)thiophene-2-carboxylic acid], in that order: not below 1000 nM and 200 to 1000 nM.
Regarding `CC1(C)C[C@@H](Nc2cccc(-c3sc(C(=O)O)c(OCC(=O)O)c3Cl)c2)CCN1S(=O)(=O)Cc1cccc(NC(=O)C2CCN(C(=O)COc3cccc4c3CN(C3CCC(=O)NC3=O)C4=O)CC2)c1` (stereo partly drawn) [Example 63, 3-(carboxymethoxy)-4-chloro-5-(3-(((4S)-1-((3-(1-(2-((2-(2,6-dioxopiperidin-3-yl)-1-oxoisoindolin-4-yl)oxy)acetyl)piperidine-4-carboxamido)benzyl)sulfonyl)-2,2-dimethylpiperidin-4-yl)amino)phenyl)thiophene-2-carboxylic acid], the values for the DC50 in test [1] and in test [2] were 200 to 1000 nM and 50 to 200 nM, respectively.
The corresponding values for `O=C(O)COc1c(C(=O)O)sc(-c2cccc(NC3CCN(S(=O)(=O)Cc4cccc(NC(=O)CNc5ccc6c(c5)CN(C5CCC(=O)NC5=O)C6=O)c4)CC3)c2)c1Cl` (centres unmarked) [Example 36, 3-(carboxymethoxy)-4-chloro-5-[3-[[1-[[3-[[2-[[2-(2,6-dioxo-3-piperidyl)-1-oxo-isoindolin-5-yl]amino]acetyl]amino]phenyl]methylsulfonyl]-4-piperidyl]amino]phenyl]thiophene-2-carboxylic acid] are 200 to 1000 nM and 200 to 1000 nM.
With `O=C(O)COc1c(C(=O)O)sc(-c2cccc(NC3CCN(S(=O)(=O)Cc4ccc(F)c(NC(=O)C5CN(C(=O)COc6cccc7c6CN(C6CCC(=O)NC6=O)C7=O)C5)c4)CC3)c2)c1Cl` (centres unmarked) [Example 93], the figures for the DC50 in test [1] and in test [2] were 200 to 1000 nM and 50 to 200 nM, respectively.
The corresponding values for `O=C(O)COc1c(C(=O)O)sc(-c2cccc(NC3CCN(S(=O)(=O)Cc4ccc(F)c(NC(=O)C5CCN(C(=O)CNc6cccc7c6CN(C6CCC(=O)NC6=O)C7=O)CC5)c4)CC3)c2)c1Cl` (centres unmarked) [Example 77] are not below 1000 nM and 50 to 200 nM.
For `CC1(C)C[C@@H](Nc2cccc(-c3sc(C(=O)O)c(OCC(=O)O)c3Cl)c2)CCN1S(=O)(=O)Cc1cccc(NC(=O)[C@H]2CC[C@H](C(=O)Nc3cccc4c3CN(C3CCC(=O)NC3=O)C4=O)CC2)c1` (stereo partly drawn) [Example 86, 3-(carboxymethoxy)-4-chloro-5-(3-(((4S)-1-((3-((1r,4R)-4-((2-(2,6-dioxopiperidin-3-yl)-1-oxoisoindolin-4-yl)carbamoyl)cyclohexane-1-carboxamido)benzyl)sulfonyl)-2,2-dimethylpiperidin-4-yl)amino)phenyl)thiophene-2-carboxylic acid], in that order: 200 to 1000 nM and 50 to 200 nM.
In the case of `CC1(C)C[C@@H](Nc2cccc(-c3sc(C(=O)O)c(OCC(=O)O)c3Cl)c2)CCN1S(=O)(=O)Cc1cccc(NC(=O)C2CN(C(=O)CNc3cccc4c3CN([C@H]3CCC(=O)NC3=O)C4=O)C2)c1` (single isomer, unassigned) [Example 44b], the DC50 in test [1] is 200 to 1000 nM; in test [2] it was less than 50 nM.
For `CC1(C)C[C@H](Nc2cccc(-c3sc(C(=O)O)c(OCC(=O)O)c3Cl)c2)CCN1S(=O)(=O)Cc1cccc(NC(=O)CCn2cc(CNc3cccc4c3C(=O)N(C3CCC(=O)NC3=O)C4=O)nn2)c1` (stereo partly drawn) [Example 14, 3-(carboxymethoxy)-4-chloro-5-(3-(((4R)-1-((3-(3-(4-(((2-(2,6-dioxopiperidin-3-yl)-1,3-dioxoisoindolin-4-yl)amino)methyl)-1H-1,2,3-triazol-1-yl)propanamido)benzyl)sulfonyl)-2,2-dimethylpiperidin-4-yl)amino)phenyl)thiophene-2-carboxylic acid], in that order: not below 1000 nM and 200 to 1000 nM.
For the molecule `CC1(C)C[C@H](Nc2cccc(-c3sc(C(=O)O)c(OCC(=O)O)c3Cl)c2)CCN1S(=O)(=O)Cc1ccc(F)c(NC(=O)N2CCC(c3ccc4c5c(cccc35)C(=O)N4C3CCC(=O)NC3=O)CC2)c1` (some centres unmarked) [Example 127], the results for the DC50 in test [1] and in test [2] were less than 50 nM and 200 to 1000 nM, respectively.
The corresponding values for `CC(C)(c1cccc(NC(=O)CCCCCCNC(=O)CNc2ccc3c(c2)CN(C2CCC(=O)NC2=O)C3=O)c1)S(=O)(=O)N1CCC(Nc2cccc(-c3sc(C(=O)O)c(OCC(=O)O)c3Cl)c2)CC1` (centres unmarked) [Example 39, 3-(carboxymethoxy)-4-chloro-5-[3-[[1-[1-[3-[7-[[2-[[2-(2,6-dioxo-3-piperidyl)-1-oxo-isoindolin-5-yl]amino]acetyl]amino]heptanoylamino]phenyl]-1-methyl-ethyl]sulfonyl-4-piperidyl]amino]phenyl]thiophene-2-carboxylic acid] are not below 1000 nM and 200 to 1000 nM.
The corresponding values for `Cn1c(=O)n(C2CCC(=O)NC2=O)c2ccc(C3CCN(C(=O)Nc4cccc(CS(=O)(=O)N5CC[C@H](Nc6cccc(-c7sc(C(=O)O)c(OCC(=O)O)c7Cl)c6F)CC5(C)C)c4)CC3)cc21` (stereo partly drawn) [Example 134, 3-(carboxymethoxy)-4-chloro-5-[3-[[(4S)-1-[[3-[[4-[1-(2,6-dioxo-3-piperidyl)-3-methyl-2-oxo-benzimidazol-S-yl]piperidine-1-carbonyl]amino]phenyl]methylsulfonyl]-2,2-dimethyl-4-piperidyl]amino]-2-fluoro-phenyl]thiophene-2-carboxylic acid] are less than 50 nM and less than 50 nM.
For `CC1(C)C[C@@H](Nc2cccc(-c3sc(C(=O)O)c(OCC(=O)O)c3Cl)c2)CCN1S(=O)(=O)Cc1cccc(NC(=O)CCCNC(=O)CNc2cccc3c2CN(C2CCC(=O)NC2=O)C3=O)c1` (stereo partly drawn) [Example 28, 3-(carboxymethoxy)-4-chloro-5-(3-(((4S)-1-((3-(4-(2-((2-(2,6-dioxopiperidin-3-yl)-1-oxoisoindolin-4-yl)amino)acetamido)butanamido)benzyl)sulfonyl)-2,2-dimethylpiperidin-4-yl)amino)phenyl)thiophene-2-carboxylic acid], in that order: not below 1000 nM and 200 to 1000 nM.

As usually defined, the DC50 is the concentration giving 50% degradation. Read a low DC50 as degradation at low concentration.
